Measured values reported in paper PMC4255672 (2014).

System: BPA aptamer (DNA, aptamer) CCGCCGTTGGTGTGGTGGGCCTAGGGCCGGCGGCGCACAGCTGTTATAGACGTCTCCAGC
Assay: microscale thermophoresis
Details: 25 °C; 5 nM aptamer; BPA 310 pM to 10 μM; Hill1 fit; buffer not stated

- Kd: ~ 100 nM
Compound: CC(C)(c1ccc(O)cc1)c1ccc(O)cc1
